Experimental data as given in patent US20090013417A1, “Transgenic Animals for Assessing Drug Metabolism and Toxicity in Man” (IMPERIAL CANCER RESEARCH TECHNOLOGY LIMITED, priority 2004, published 2009).

What was measured:
[1] = blood midazolam concentrations after oral midazolam in wild-type, HRN and Ad-3A4/red virus-infected HRN mice; details: oral 2.5 mg/kg midazolam
[2] = tested on: Chinese Hamster Ovary (CHO) cell line transfected with human cytochrome P450 2D6 (CYP2D6); test: metabolism of midazolam or bufuralol in CHO cells transfected with human CYP2D6, with or without Ad-3A4/red infection; details: CHO/2D6 cells uninfected or infected with control Ad-GFP; 10 μM, four hours

With `Cc1ncc2n1-c1ccc(Cl)cc1C(c1ccccc1F)=NC2` [midazolam] the peak midazolam concentration ([1]; HRN mice infected with Ad-3A4/red virus (72 h before)) was 109 ng/mL, the “circulating midazolam concentration, peak value” ([1]; non-infected HRN mice) was 260 ng/mL and the “time circulating midazolam remained detectable” value ([1]; non-infected HRN mice) was greater than 6 h. The “circulating midazolam concentration, peak value” ([1]; wild-type mice) was 128 ng/mL, the “time until circulating midazolam became undetectable again” value ([1]; wild-type mice) was no more than 3 h and the “midazolam metabolism (1'-hydroxymidazolam formation)” value [2] was “extremely slow”.
